# Non-standard residues stand in square brackets, D forms with d. Residues, ends and D or L forms follow the SMILES beside them. Groups on a side chain read outwards from the residue. No end group written: not given here. Phe(4-NH2) = Nc1ccc(C[C@H](N)C(=O)O)cc1; Aze = O=C(O)[C@@H]1CCN1; Nleu = CC(C)CNCC(=O)O; Aib = CC(C)(N)C(=O)O
# B1: IGF-1 A (H8 A9 N21):B(H5D10Y16L17 A22) DPI A-COOH (ligand)
# chain 1: GIVDECCHASCDLRRLEMYCN-OH
# chain 2: GPEHLCGADLVDALYLVCGDAGFY
# modifications: not fully specified (bridges); cysteine pairing not given here
# Key:
# physchem = conditions: buffer
# Method: (§1) The solution was incubated at 37° C. […] The dipeptide cleavage was quenched by lowering the pH with an equal volume of 0.1% TFA. The rate of cleavage was qualitatively monitored by LC-MS and quantitatively studied by HPLC. The retention time and relative peak area for the prodrug and the parent model peptide were quantified using Peak Simple Chromatography software.
# (§2) The flow rate was 1 ml/min. Solvent A contained 0.1% TFA in distilled water, and solvent B contained 0.1% TFA in 90% CH3CN. A linear gradient was employed (0% to 30% B in 10 minutes). The data were collected and analyzed using Peak Simple Chromatography software.
# (§3) The rate of cleavage was determined for the respective propeptides. The concentrations of the propeptides and the model parent peptide were determined by their respective peak areas. The first order dissociation rate constants of the prodrugs were determined by plotting the logarithm of the concentration of the prodrug at various time intervals. The slope of this plot provides the rate constant ‘k’.
# [1] = Rate of model dipeptide cleavage from model hexapeptide in PBS (HPLC); conditions: buffer
# Method: as §1, §2, §3
# Insulin Receptor = Insulin Receptor (Homo sapiens, UniProt P06213); assay: Insulin receptor binding assay (competition, scintillation proximity); conditions: Table 9; IGF-1 receptor IC50 versus insulin receptor IC50
# Insulin Receptor, sequence (P06213 28-758 limits assumed): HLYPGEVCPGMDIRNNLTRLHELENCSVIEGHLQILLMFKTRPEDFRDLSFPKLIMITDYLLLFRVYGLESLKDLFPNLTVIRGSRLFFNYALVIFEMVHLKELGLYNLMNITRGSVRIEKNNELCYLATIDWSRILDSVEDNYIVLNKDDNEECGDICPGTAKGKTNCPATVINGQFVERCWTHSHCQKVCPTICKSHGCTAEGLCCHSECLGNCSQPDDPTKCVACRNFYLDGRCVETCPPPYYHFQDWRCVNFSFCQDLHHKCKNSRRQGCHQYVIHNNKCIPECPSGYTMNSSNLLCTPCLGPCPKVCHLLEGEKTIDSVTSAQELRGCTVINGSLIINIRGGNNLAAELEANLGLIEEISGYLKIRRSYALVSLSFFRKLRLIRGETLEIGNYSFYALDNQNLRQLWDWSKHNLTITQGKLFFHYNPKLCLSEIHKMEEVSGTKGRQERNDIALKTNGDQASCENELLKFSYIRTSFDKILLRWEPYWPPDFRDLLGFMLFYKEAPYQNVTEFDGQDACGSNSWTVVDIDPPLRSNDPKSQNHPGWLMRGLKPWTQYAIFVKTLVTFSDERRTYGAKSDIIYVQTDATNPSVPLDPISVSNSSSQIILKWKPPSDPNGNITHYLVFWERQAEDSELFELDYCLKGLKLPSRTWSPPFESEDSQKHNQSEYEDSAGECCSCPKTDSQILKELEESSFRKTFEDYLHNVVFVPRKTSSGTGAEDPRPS
# Insulin Receptor, sequence (P06213 763-1382 partner limits assumed): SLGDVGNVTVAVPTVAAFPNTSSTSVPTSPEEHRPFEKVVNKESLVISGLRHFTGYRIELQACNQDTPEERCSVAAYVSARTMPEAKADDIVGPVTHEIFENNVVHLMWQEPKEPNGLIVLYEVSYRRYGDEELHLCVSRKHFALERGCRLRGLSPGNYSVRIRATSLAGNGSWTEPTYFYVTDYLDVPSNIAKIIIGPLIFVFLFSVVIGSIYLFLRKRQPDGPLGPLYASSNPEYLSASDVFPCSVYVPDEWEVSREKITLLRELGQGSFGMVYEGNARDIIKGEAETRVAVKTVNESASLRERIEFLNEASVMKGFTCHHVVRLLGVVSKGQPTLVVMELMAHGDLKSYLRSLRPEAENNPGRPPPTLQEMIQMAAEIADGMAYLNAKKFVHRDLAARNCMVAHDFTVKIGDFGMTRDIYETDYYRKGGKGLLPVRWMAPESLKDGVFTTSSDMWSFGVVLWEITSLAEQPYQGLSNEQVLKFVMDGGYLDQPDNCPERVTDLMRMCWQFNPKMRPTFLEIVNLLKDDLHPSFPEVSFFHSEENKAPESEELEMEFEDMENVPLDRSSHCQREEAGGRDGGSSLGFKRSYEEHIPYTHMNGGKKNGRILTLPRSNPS
# [2] = Dipeptide half life on IGF1 dipeptide extended (p-NH2-F)A19 amide derivatives in PBS (HPLC); assay type: physicochemical; conditions: buffer, pH 7.4
# Method: IGF-1 peptides was measured to determine the impact of the peptide sequence or heteroduplex on the dipeptide cleavage.
# Accordingly, the IGF1A chain alone was determined to be a good model for the study of pro-drug half life on IGF1 B:A (Y^B16L^B17) derivative peptides. […] For simplicity, prodrug half lives were determined using only the IGF1 A chain in the absence of the B chain. The half lives of each propeptide was determined as described in Example 5.
# The IGF^B16B17 derivative peptide prodrugs were incubated in PBS, pH 7.4 at 37° C. and at predetermined time intervals an aliquot was taken and further degradation was quenched with 0.1% TFA and the aliquot was subjected to analytical HPLC analysis. Peaks a and b, representing the prodrug and active forms of the IGF^B16B17 derivative peptide were identified with LC-MS and quantified by integration of peak area an HPLC. FIGS. 9A-9C show the output of an HPLC analysis of the degradation of the IGF^B16B17 derivativepeptide prodrug: IGF1A(Ala)^6,7,11,20(Aib-Pro-pNH-F)^19. Aliquots were taken at 20 minutes (FIG. 9A), 81 minutes (FIG. 9B) and 120 minutes (FIG. 9C) after beginning the incubation of the prodrug in PBS.
# in vitro = in vitro ADME; conditions: plasma
# human IGF-1 receptor = human IGF-1 receptor (human, UniProt P08069 31-1367); assay: cell-based or functional assay
molecule,measurement,setting,value
C[C@@H](O)[C@H](NC(=O)CNC(=O)[C@H](CCCNC(=N)N)NC(=O)[C@H](CO)NC(=O)[C@H](Cc1c[nH]cn1)NC(=O)[C@@H]1CCN1C(=O)C(C)(C)N)C(=O)N[C@@H](Cc1ccccc1)C(N)=O [Compound 26] (H-[Aib][Aze]HSRGTF-NH2),half-life at 1 mg/ml,physchem,> 500 h
C[C@@H](O)[C@H](NC(=O)CNC(=O)[C@H](CCCNC(=N)N)NC(=O)[C@H](CO)NC(=O)[C@H](Cc1c[nH]cn1)NC(=O)[C@H](C)N(C)C(=O)[C@H](N)CCCCN)C(=O)N[C@@H](Cc1ccccc1)C(N)=O [Compound 31],half-life at 1 mg/ml,[1],14 h
C[C@@H](O)[C@H](NC(=O)CNC(=O)[C@H](CCCNC(=N)N)NC(=O)[C@H](CO)NC(=O)[C@H](Cc1c[nH]cn1)NC(=O)[C@H](Cc1ccccc1)N(C)C(=O)[C@H](N)CCCCN)C(=O)N[C@@H](Cc1ccccc1)C(N)=O [Compound 32],half-life at 1 mg/ml,[1],57 h
CC[C@H](C)[C@H](NC(=O)CN)C(=O)N[C@H](C(=O)N[C@@H](CC(=O)O)C(=O)N[C@@H](CCC(=O)O)C(=O)N[C@H]1CSSC[C@@H]2NC(=O)[C@H](CO)NC(=O)[C@H](CCCNC(=N)N)NC(=O)[C@H](Cc3ccccc3)NC(=O)[C@H](CSSC[C@H](NC(=O)[C@H](CC(C)C)NC(=O)[C@@H](NC(=O)[C@H](CCC(=O)O)NC(=O)[C@@H]3CCCN3C(=O)CN)[C@@H](C)O)C(=O)NCC(=O)N[C@@H](C)C(=O)N[C@@H](CCC(=O)O)C(=O)N[C@@H](CC(C)C)C(=O)N[C@@H](C(C)C)C(=O)N[C@@H](CC(=O)O)C(=O)N[C@@H](C)C(=O)N[C@@H](CC(C)C)C(=O)N[C@@H](Cc3ccc(O)cc3)C(=O)N[C@@H](CC(C)C)C(=O)N[C@@H](C(C)C)C(=O)N[C@H](C(=O)NCC(=O)N[C@@H](CC(=O)O)C(=O)N[C@@H](CCCNC(=N)N)C(=O)NCC(=O)N[C@@H](Cc3ccccc3)C(=O)N[C@@H](Cc3ccc(O)cc3)C(N)=O)CSSC[C@@H](C(=O)N[C@@H](C)C(N)=O)NC(=O)[C@H](Cc3ccc(O)cc3)NC(=O)[C@H](CCSC)NC(=O)[C@H](CCC(=O)O)NC(=O)[C@H](CC(C)C)NC(=O)[C@H](CCCNC(=N)N)NC(=O)[C@H](CCCNC(=N)N)NC(=O)[C@H](CC(C)C)NC(=O)[C@H](CC(=O)O)NC2=O)NC1=O)C(C)C [IGF-1 A:B (E10Y16L17) DPI],Ratio,Insulin Receptor,60.2
CC[C@H](C)[C@H](NC(=O)CN)C(=O)N[C@H](C(=O)N[C@@H](CC(=O)O)C(=O)N[C@@H](CCC(=O)O)C(=O)N[C@@H](C)C(=O)N[C@@H](C)C(=O)N[C@@H](Cc1ccccc1)C(=O)N[C@@H](CCCNC(=N)N)C(=O)N[C@@H](CO)C(=O)N[C@@H](C)C(=O)N[C@@H](CC(=O)O)C(=O)N[C@@H](CC(C)C)C(=O)N[C@@H](CCCNC(=N)N)C(=O)N[C@@H](CCCNC(=N)N)C(=O)N[C@@H](CC(C)C)C(=O)N[C@@H](CCC(=O)O)C(=O)N[C@@H](CCSC)C(=O)N[C@@H](Cc1ccc(NC(=O)CN(CC(C)C)C(=O)[C@H](N)CCCCN)cc1)C(=O)N[C@@H](C)C(=O)N[C@@H](C)C(N)=O)C(C)C [dK N-isobutyl Gly] (H-GIVDEAAFRSADLRRLEM[Phe(4-NH2)]([Nleu-dK])AA-NH2),half-life,[2],4.4 h
same,half-life,in vitro,4.1 h
B1,% IGF,human IGF-1 receptor,7.7%

# From patent US20110245164A1 (INDIANA UNIVERSITY RESEARCH AND TECHNOLOGY, published 2011)
